We go through 22 molecules from patent US7994185B2, “Benzene sulfonamide thiazole and oxazole compounds” (Glaxo Smith Kline LLC, priority 2008, dated 2011).

pIC50: −log10 of the molar value. Like-named read-outs stand apart in the source and are kept apart here.

The test system of experiment [1] is Human melanoma cancer cells (SK-MEL-28). As to the kind of experiment: Cell growth inhibition assay (CellTiter-Glo), SK-MEL-28. Conditions: SK-MEL-28, Table 3b, later runs, average for the one or more runs, categorized, read-out: IC50 for SK-MEL-28. It counts as cell-based. Background: ATP-based viability assays read luminescence as a measure of living cells.
In experiment [2] the test system is Human colon tumor cells (Colo205). As to the kind of experiment: Cell growth inhibition assay (CellTiter-Glo), Colo205. Type of experiment: cell-based. Conditions: COLO 205, Table 2b, later runs, average for the one or more runs, categorized, read-out: IC50 for Colo205. The method in brief:
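Colo205 (and SK-MEL-28) cells in RPMI with 10% FBS were exposed to 10-point 1:3 serial dilutions of compound at 0.2% final DMSO for 3 days at 37 °C. Total ATP, a surrogate for cell number, was read by CellTiter-Glo luminescence, with % growth inhibition relative to DMSO-treated wells.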

The target of experiment [3] is T1, BRAFV600E full-length (amino acids 2-766) (Homo sapiens, UniProt P15056, V600E).
T1 construct: His6-tagged BRAFV600E full-length (amino acids 2-766); His6; made in house; host or cells: baculovirus expression system (insect cells)
T1 sequence (P15056 2-766 V600E): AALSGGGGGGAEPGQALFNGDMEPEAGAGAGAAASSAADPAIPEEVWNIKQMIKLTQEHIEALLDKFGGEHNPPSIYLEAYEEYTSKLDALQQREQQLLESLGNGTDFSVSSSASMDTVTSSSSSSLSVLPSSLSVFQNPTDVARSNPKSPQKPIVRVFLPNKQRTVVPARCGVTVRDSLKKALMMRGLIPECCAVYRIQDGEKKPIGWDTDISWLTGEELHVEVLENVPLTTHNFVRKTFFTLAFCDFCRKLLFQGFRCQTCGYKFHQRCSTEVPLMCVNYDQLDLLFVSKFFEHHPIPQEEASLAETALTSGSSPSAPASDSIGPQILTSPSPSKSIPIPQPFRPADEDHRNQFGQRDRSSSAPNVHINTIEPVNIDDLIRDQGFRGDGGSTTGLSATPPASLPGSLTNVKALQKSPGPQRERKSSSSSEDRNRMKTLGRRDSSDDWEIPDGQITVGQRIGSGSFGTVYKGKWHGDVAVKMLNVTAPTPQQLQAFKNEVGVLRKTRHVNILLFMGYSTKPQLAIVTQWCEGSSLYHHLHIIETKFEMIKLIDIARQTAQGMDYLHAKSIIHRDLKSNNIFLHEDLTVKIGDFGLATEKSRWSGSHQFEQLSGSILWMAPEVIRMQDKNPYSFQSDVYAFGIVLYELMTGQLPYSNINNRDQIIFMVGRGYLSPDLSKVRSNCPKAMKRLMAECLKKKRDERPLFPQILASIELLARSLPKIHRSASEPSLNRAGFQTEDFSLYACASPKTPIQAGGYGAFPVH
Description: B-Raf Accelerated MEK ATPase assay (BRAMA). Type of experiment: biochemical. Conditions: later runs, average pIC50 for the one or more runs, categorized; for pIC50: B-Raf pIC50, Table 1b; for IC50: Table 1b, read-out: B-Raf pIC50 (converted). The gist of the method:
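Coupled-enzyme readout: ADP generated by MEK-mediated ATP hydrolysis, uncoupled from ERK phosphorylation, is linked to NADH oxidation through pyruvate kinase and lactate dehydrogenase.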

With `CC(C)(C)c1nc(-c2cccc(NS(=O)(=O)c3ccsc3)c2F)c(-c2ccnc(N)n2)s1` [Example 233, N-{3-[5-(2-amino-4-pyrimidinyl)-2-(1,1-dimethylethyl)-1,3-thiazol-4-yl]-2-fluorophenyl}-3-thiophenesulfonamide], the negative-log IC50 (pIC50) in experiment [1] is more than 7.00; in experiment [2] it was more than 7.00; in experiment [3], not below 8.50.

`CC(C)(C)c1nc(-c2cccc(NS(=O)(=O)c3ccoc3)c2F)c(-c2ccnc(N)n2)s1` [Example 234, N-{3-[5-(2-amino-4-pyrimidinyl)-2-(1,1-dimethylethyl)-1,3-thiazol-4-yl]-2-fluorophenyl}-3-furansulfonamide]: the negative-log IC50 (pIC50) in experiment [1] is more than 7.00; in experiment [2] it was more than 7.00; in experiment [3], not below 8.50.

With `Cc1csc(S(=O)(=O)Nc2cccc(-c3nc(C(C)(C)C)sc3-c3ccnc(N)n3)c2F)c1` [Example 235, N-{3-[5-(2-amino-4-pyrimidinyl)-2-(1,1-dimethylethyl)-1,3-thiazol-4-yl]-2-fluorophenyl}-4-methyl-2-thiophenesulfonamide], the negative logarithm of the IC50 (pIC50) in experiment [1] and in experiment [2] was more than 7.00 throughout. In addition, the IC50 in experiment [3] is 3.16 to 31.6 nM.

Take `CC(C)(C)c1nc(-c2cccc(NS(=O)(=O)c3c(F)cccc3F)c2Cl)c(-c2ccnc(N)n2)s1` [Example 236, N-{3-[5-(2-amino-4-pyrimidinyl)-2-(1,1-dimethylethyl)-1,3-thiazol-4-yl]-2-chlorophenyl}-2,6-difluorobenzenesulfonamide]: the negative logarithm of the IC50 (pIC50) in experiment [1] was more than 7.00; in experiment [2], more than 7.00; in experiment [3], not below 8.50.

On to `CC(C)(C)c1nc(-c2cccc(NS(=O)(=O)c3c(F)cccc3F)c2Cl)c(-c2ccncn2)s1` [Example 237, N-{2-chloro-3-[2-(1,1-dimethylethyl)-5-(4-pyrimidinyl)-1,3-thiazol-4-yl]phenyl}-2,6-difluorobenzenesulfonamide], for which the pIC50 in experiment [1] and in experiment [2] was more than 7.00 in each case. Besides, the IC50 in experiment [3] is 3.16 to 31.6 nM.

In the case of `Nc1nccc(-c2sc(C3CCOCC3)nc2-c2cccc(NS(=O)(=O)c3c(F)cccc3F)c2Cl)n1` [Example 238, N-{3-[5-(2-amino-4-pyrimidinyl)-2-(tetrahydro-2H-pyran-4-yl)-1,3-thiazol-4-yl]-2-chlorophenyl}-2,6-difluorobenzenesulfonamide], the pIC50 in experiment [1] is more than 7.00; in experiment [2] it was more than 7.00; in experiment [3] it was not below 8.50.

Regarding `Cc1nccc(-c2sc(C(C)(C)C)nc2-c2cccc(NS(=O)(=O)c3c(F)cccc3F)c2Cl)n1` [Example 239, N-{2-chloro-3-[2-(1,1-dimethylethyl)-5-(2-methyl-4-pyrimidinyl)-1,3-thiazol-4-yl]phenyl}-2,6-difluorobenzenesulfonamide], the negative-log IC50 (pIC50) in experiment [1] and in experiment [2] was more than 7.00 each time. In experiment [3], the IC50 was 3.16 to 31.6 nM.

Consider `O=S(=O)(Nc1cccc(-c2nc(N3CCOCC3)sc2-c2ccncn2)c1Cl)c1cc(F)ccc1F` [Example 240, N-{2-chloro-3-[2-(4-morpholinyl)-5-(4-pyrimidinyl)-1,3-thiazol-4-yl]phenyl}-2,5-difluorobenzenesulfonamide], for which the pIC50 is more than 7.00 in experiment [1], more than 7.00 in experiment [2] and not below 8.50 in experiment [3].

Consider `CC(C)(C)c1nc(-c2cccc(NS(=O)(=O)c3cc(F)ccc3F)c2Cl)c(-c2ccnc(N)n2)s1` [Example 241, N-{3-[5-(2-amino-4-pyrimidinyl)-2-(1,1-dimethylethyl)-1,3-thiazol-4-yl]-2-chlorophenyl}-2,5-difluorobenzenesulfonamide], for which the negative-log IC50 (pIC50) in experiment [1] was more than 7.00; in experiment [2], more than 7.00; in experiment [3], not below 8.50.

In the case of `Nc1nccc(-c2sc(C3CCOCC3)nc2-c2cccc(NS(=O)(=O)c3cc(F)ccc3F)c2Cl)n1` [Example 242, N-{3-[5-(2-amino-4-pyrimidinyl)-2-(tetrahydro-2H-pyran-4-yl)-1,3-thiazol-4-yl]-2-chlorophenyl}-2,5-difluorobenzenesulfonamide], the results for the negative logarithm of the IC50 (pIC50) in experiment [1], in experiment [2] and in experiment [3] were more than 7.00, more than 7.00 and not below 8.50, respectively.

With `O=S(=O)(Nc1cccc(-c2nc(C3CCOCC3)sc2-c2ccncn2)c1Cl)c1cc(F)ccc1F` [Example 243, N-{2-chloro-3-[5-(4-pyrimidinyl)-2-(tetrahydro-2H-pyran-4-yl)-1,3-thiazol-4-yl]phenyl}-2,5-difluorobenzenesulfonamide], the pIC50 in experiment [1] is more than 7.00; in experiment [2], more than 7.00; in experiment [3], not below 8.50.

In the case of `O=S(=O)(Nc1cccc(-c2nc(C3CCOCC3)sc2-c2ccncn2)c1F)c1cc(F)ccc1F` [Example 244, 2,5-difluoro-N-{2-fluoro-3-[5-(4-pyrimidinyl)-2-(tetrahydro-2H-pyran-4-yl)-1,3-thiazol-4-yl]phenyl}benzenesulfonamide], the pIC50 in experiment [1] is more than 7.00; in experiment [2], more than 7.00; in experiment [3], not below 8.50.

As to `Nc1nccc(-c2sc(C3CCOCC3)nc2-c2cccc(NS(=O)(=O)c3cc(F)ccc3F)c2F)n1` [Example 245, N-{3-[5-(2-amino-4-pyrimidinyl)-2-(tetrahydro-2H-pyran-4-yl)-1,3-thiazol-4-yl]-2-fluorophenyl}-2,5-difluorobenzenesulfonamide], the pIC50 in experiment [1] is more than 7.00; in experiment [2], more than 7.00; in experiment [3], not below 8.50.

Regarding `Cc1nccc(-c2sc(C3CCOCC3)nc2-c2cccc(NS(=O)(=O)c3cc(F)ccc3F)c2F)n1` [Example 246, 2,5-difluoro-N-{2-fluoro-3-[5-(2-methyl-4-pyrimidinyl)-2-(tetrahydro-2H-pyran-4-yl)-1,3-thiazol-4-yl]phenyl}benzenesulfonamide], the negative-log IC50 (pIC50) in experiment [1] and in experiment [2] was more than 7.00 in each case. For the same molecule, the IC50 in experiment [3] was 3.16 to 31.6 nM.

With `CC(C)(C)c1nc(-c2cccc(NS(=O)(=O)c3c(F)cccc3F)c2F)c(-c2ccnc(CCCO)n2)s1` [Example 247, N-(3-{2-(1,1-dimethylethyl)-5-[2-(3-hydroxypropyl)-4-pyrimidinyl]-1,3-thiazol-4-yl}-2-fluorophenyl)-2,6-difluorobenzenesulfonamide], the pIC50 in experiment [1] and in experiment [2] was more than 7.00 in each case. In addition, in experiment [3], the IC50 is 3.16 to 31.6 nM.

As for `CC(C)(O)CCc1nccc(-c2sc(N3CCOCC3)nc2-c2cccc(NS(=O)(=O)c3cc(F)ccc3F)c2F)n1` [Example 248, 2,5-difluoro-N-{2-fluoro-3-[5-[2-(3-hydroxy-3-methylbutyl)-4-pyrimidinyl]-2-(4-morpholinyl)-1,3-thiazol-4-yl]phenyl}benzenesulfonamide], the pIC50 in experiment [1] and in experiment [2] was more than 7.00 throughout. Further, in experiment [3], the IC50 is 3.16 to 31.6 nM.

As to `CC(C)(O)CCc1nccc(-c2sc(C(C)(C)C)nc2-c2cccc(NS(=O)(=O)c3c(F)cccc3F)c2F)n1` [Example 249, N-(3-{2-(1,1-dimethylethyl)-5-[2-(3-hydroxy-3-methylbutyl)-4-pyrimidinyl]-1,3-thiazol-4-yl}-2-fluorophenyl)-2,6-difluorobenzenesulfonamide], the pIC50 in experiment [1] and in experiment [2] was more than 7.00 in each case. In addition, the IC50 in experiment [3] is 3.16 to 31.6 nM.

Consider `CC(C)(O)CCc1nccc(-c2sc(C(C)(C)C)nc2-c2cccc(NS(=O)(=O)c3cc(F)ccc3F)c2F)n1` [Example 250, N-(3-{2-(1,1-dimethylethyl)-5-[2-(3-hydroxy-3-methylbutyl)-4-pyrimidinyl]-1,3-thiazol-4-yl}-2-fluorophenyl)-2,5-difluorobenzenesulfonamide], for which the negative logarithm of the IC50 (pIC50) in experiment [1] was 6.00 to 7.00; in experiment [2] it was more than 7.00. The IC50 in experiment [3] was 3.16 to 31.6 nM.

As for `CC(C)(C)c1nc(-c2cccc(NS(=O)(=O)c3c(F)cccc3F)c2F)c(-c2ccnc(CCS(C)(=O)=O)n2)s1` [Example 251, N-[3-(2-(1,1-dimethylethyl)-5-{2-[2-(methylsulfonyl)ethyl]-4-pyrimidinyl}-1,3-thiazol-4-yl)-2-fluorophenyl]-2,6-difluorobenzenesulfonamide], the pIC50 in experiment [1] and in experiment [2] was more than 7.00 each time. Moreover, in experiment [3], the IC50 was 3.16 to 31.6 nM.

Regarding `CC(C)(C)c1nc(-c2cccc(NS(=O)(=O)c3cc(F)ccc3F)c2Cl)c(-c2ccnc(CCS(C)(=O)=O)n2)s1` [Example 252, N-[2-chloro-3-(2-(1,1-dimethylethyl)-5-{2-[2-(methylsulfonyl)ethyl]-4-pyrimidinyl}-1,3-thiazol-4-yl)phenyl]-2,5-difluorobenzenesulfonamide], the pIC50 in experiment [1] was more than 7.00; in experiment [2], more than 7.00; in experiment [3] it was not below 8.50.

As to `Cc1nccc(-c2sc(N3CCS(=O)(=O)CC3)nc2-c2cccc(NS(=O)(=O)c3cc(F)ccc3F)c2F)n1` [Example 253, N-{3-[2-(1,1-dioxido-4-thiomorpholinyl)-5-(2-methyl-4-pyrimidinyl)-1,3-thiazol-4-yl]-2-fluorophenyl}-2,5-difluorobenzenesulfonamide], the negative logarithm of the IC50 (pIC50) in experiment [1] and in experiment [2] was more than 7.00 in each case. Besides, the IC50 in experiment [3] was 3.16 to 31.6 nM.

Regarding `CC(C)(C)c1nc(-c2cccc(NS(=O)(=O)c3cc(F)ccc3F)c2F)c(-c2ccnc(CCC(=O)N3CCOCC3)n2)s1` [Example 254, N-[3-(2-(1,1-dimethylethyl)-5-{2-[3-(4-morpholinyl)-3-oxopropyl]-4-pyrimidinyl}-1,3-thiazol-4-yl)-2-fluorophenyl]-2,5-difluorobenzenesulfonamide], the pIC50 in experiment [1] was more than 7.00; in experiment [2], 6.00 to 7.00. For the same molecule, the IC50 in experiment [3] was 3.16 to 31.6 nM.

As a reminder, the pIC50 is the IC50 on a negative log10 scale, so that one unit is a factor of ten.
